According to patent US12016870B2, “Agents for use in the treatment of cardiac arrhythmia” (priority 2018, dated 2024):

Legend:
[1] = test system: tissue engineered strands of rat ventricular cardiomyocytes; assay: Conduction velocity along linear tissue engineered cardiomyocyte strands, optical recording with di-8-ANEPPS; assay type: cell-based; settings: for Conduction velocity (CV) along strands of cardiomyocytes: mean+/-SD
Method: The effects of Gb3 on impulse propagation characteristics were investigated in tissue engineered strands of rat ventricular cardiomyocytes where impulse propagation was recorded using the voltage sensitive dye di-8-ANEPPS as described below.
(§1) Impulse propagation along the patterned preparations was followed optically using a fast voltage-sensitive dye (Rohr et al., 1994, Biophys J., 67(3):1301-1315). In short, the preparations were stained for 3 to 4 minutes with 1 mL of the superfusion solution containing […] of the voltage-sensitive dye di-8-ANEPPS (Molecular Probes). The dye was excited by a short-arc xenon lamp driven by a low-ripple power supply (Optiquip). The light was, after passing a shutter (VS25S21 MO, Vincent Assoc), short-pass filtered (570 EFSP, Omega) and deflected toward the objective by means of a dichroic mirror (575 nm; Omega). Emitted fluorescence from the preparation was long-pass filtered (590 nm, Omega) and projected onto a 2-dimensional array of 379 optical fibers, which formed a hexagonal array (Rohr et al., 1998, Biophys J., 75(2):1062-1075). From the entire array, ≤80 fibers were selected according to the shape of a given preparation and were connected to individual photodiodes. The resulting photocurrents were converted to voltages and amplified (typical overall gain of 2.5×10^9 V/A f0=1.6 kHz). The conditioned signals were simultaneously sampled at 20 kHz/channel by a computer-based data acquisition system. Experiments were performed with a 20×, 0.75 numerical aperture (NA) objective (each detector monitored a circular area with a diameter of 50 um corresponding to 4 to 10 cells contributing to the signal) permitting assessment of activation along the preparations for distances up to 1 mm.
After mounting the preparations in the experimental chamber, control superfusion was started (Hanks' balanced salt solution (HBSS), containing (mmol/L) NaCl 137, KCl 5.4, CaCl2 1.3, MgSO4 0.8, NaHCO3 4.2, KH2PO4 0.5, NaH2PO4 0.3, and HEPES 10, which was titrated to pH 7.40 with NaOH). The preparations were stimulated with bipolar electrodes consisting of glass micropipettes (filling, HBSS with 1% agar) and a silver wire coiled around the shank of the electrode. The electrodes were attached to micromanipulators (DC-3K, Marzhauser) and placed at a sufficient distance from the measurement site (1 mm) to (1) avoid electronically mediated stimulation artifacts to distort the signal of interest and (2) permit propagation to reach steady-state conditions at the site of the measurement. Rectangular impulses (duration, 1 ms; 2-3 times threshold intensity) were delivered to the preparations at a basic cycle length of 500 ms by a stimulator (SD9, Grass Instruments) for at least 10 seconds before a given optical recording. All experiments were performed at a temperature of 36+/−0.4° C.
The raw data were analyzed by programming routines written in Interactive Data Language (IDL; Creaso). The data processing typically involved manual selection of the upstroke portions of the action potentials to omit any signal distortion due to motion artifacts occurring several milliseconds after the upstrokes. The data were digitally low-pass filtered and signal amplitudes obtained under control conditions were set to 100%.
While control preparations conducted action potentials (APs) at a speed of 321.8±20.9 mm/sec (N=15), CVs in strands incubated with 10 nM Gb3 were increased by over 20% to 390.2±21.3 mm/sec (N=6, p<0.0001 versus control).

[2] = test system: multi-junction preparations (branched tissue architecture) of rat cardiomyocytes; assay: Conduction velocity in branched (multi-junction) cardiomyocyte preparations, model of discontinuous conduction; assay type: cell-based; settings: 10 nmol/L Gb3 for 24 hrs
Method: as §1, with “The resulting photocurrents were converted to voltages and amplified (typical overall gain of 2.5×10^9 V/A f0=1.6 kHz). The conditioned signals were simultaneously sampled at 20 kHz/channel by a computer-based data acquisition system.” left out, “mm. […]” for “mm.”
The raw data were analyzed by programming routines written in Interactive Data Language (IDL; Creaso). […]

globotriaosylceramide [Gb3]
Increase of CV versus control ([1]; 10 nM Gb3, 24 hours exposure): over 20%
Conduction velocity (CV) along strands of cardiomyocytes ([1]; 10 nM Gb3, 24 hours exposure, N=6, p<0.0001 versus control (control 321.8±20.9 mm/sec)): 390.2±21.3 mm/sec
Conduction velocity (CV) along strands of cardiomyocytes ([1]; 100 nM Gb3, 24 hours exposure, p<0.005 vs control): 358.8±20.3 mm/sec
Conduction velocity (CV) along strands of cardiomyocytes ([1]; 1 μM Gb3, 24 hours exposure, p=0.3 vs control): 338.4±27.3 mm/sec
Cytotoxic effects ([1]; all Gb3 concentrations used, 24 hours exposure): None of the concentrations of Gb3 used were associated with cytotoxic effects
Increase in CV in branched preparations treated with Gb3 ([2]; versus control branched preparations): ~67%
CV in multi-junction preparations as % of linear strands ([2]; N=25, normalized to linear strands grown in parallel (control multi-junction 57.4±6.7%)): 84.7±2.3%
